Test results reported in ChEMBL document CHEMBL1201862, “PubChem BioAssay data set” (2004).
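Grown in 96-well plates, cells were treated for 48 hours with each compound at five concentrations. Insufficient inhibition: endpoint recorded as highest concentration tested. Abbreviation: GI50, concentration required for 50% inhibition of growth.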 The source made the active and inactive calls. No stated cut-off is given here; in the data, active = GI50 up to about 1.1 µM and inactive = higher.

Legend:
Experiment in all cases: DTP human tumour cell line panel, 48 h
UACC-257 = test system: UACC-257
UO-31 = test system: UO-31
NCI-H460 = test system: NCI-H460
SK-MEL-5 = test system: SK-MEL-5
SNB-75 = test system: SNB-75
NCI/ADR-RES = test system: NCI/ADR-RES
OVCAR-5 = test system: OVCAR-5
NCI-H23 = test system: NCI-H23
OVCAR-3 = test system: OVCAR-3
HCC 2998 = test system: HCC 2998
HOP-62 = test system: HOP-62
SR = test system: SR
SF-539 = test system: SF-539
RPMI-8226 = test system: RPMI-8226
COLO 205 = test system: COLO 205
TK-10 = test system: TK-10
HCT-116 = test system: HCT-116
K562 = test system: K562
IGROV-1 = test system: IGROV-1
OVCAR-4 = test system: OVCAR-4

Measured: GI50

CC(=O)OC(Cc1c(O)c2c(C)cccc2oc1=O)C(C)(C)O (stereo not given)
inactive: UACC-257 > 100 µM | UO-31 > 100 µM | NCI-H460 > 100 µM | SK-MEL-5 > 100 µM | SNB-75 76 µM | NCI/ADR-RES 92.3 µM | OVCAR-5 > 100 µM | NCI-H23 > 100 µM | OVCAR-3 > 100 µM | HCC 2998 > 100 µM | HOP-62 > 100 µM | SR 55.1 µM | SF-539 > 100 µM | RPMI-8226 > 100 µM | COLO 205 > 100 µM | TK-10 > 100 µM | HCT-116 53.6 µM | K562 > 100 µM | IGROV-1 > 100 µM

NC(=S)N/N=C\c1ccc(OCc2cccc(COc3ccc(/C=N/NC(N)=S)cc3)n2)cc1
inactive: UACC-257 20.2 µM | UO-31 15.3 µM | NCI-H460 > 100 µM | SK-MEL-5 5.06 µM | SNB-75 > 100 µM | NCI/ADR-RES > 100 µM | OVCAR-4 44.2 µM | OVCAR-5 17.3 µM | NCI-H23 69.3 µM | OVCAR-3 32.7 µM | HOP-62 > 100 µM | SR 38.7 µM | SF-539 > 100 µM | RPMI-8226 4.33 µM | COLO 205 5.73 µM | TK-10 76.7 µM | HCT-116 12 µM | K562 18.6 µM | IGROV-1 14.8 µM

CC(C)(O)/C1=C/C=C/CCCCCCCCCC1
active: SK-MEL-5 0.246 µM | SNB-75 0.387 µM
inactive: UACC-257 > 100 µM | UO-31 51.9 µM | NCI-H460 > 100 µM | NCI/ADR-RES > 100 µM | OVCAR-5 > 100 µM | NCI-H23 > 100 µM | OVCAR-3 > 100 µM | HCC 2998 > 100 µM | HOP-62 > 100 µM | SR 34 µM | RPMI-8226 33.3 µM | COLO 205 > 100 µM | TK-10 > 100 µM | HCT-116 > 100 µM | K562 37.8 µM | IGROV-1 > 100 µM

CCCNC(=O)c1cc(NC(=O)c2cc(NC(=O)CCS(=O)(=O)OC)cn2C)cn1C
inactive: UACC-257 24 µM | UO-31 > 100 µM | NCI-H460 > 100 µM | SK-MEL-5 17.1 µM | SNB-75 20.6 µM | NCI/ADR-RES > 100 µM | OVCAR-4 26.5 µM | OVCAR-5 40.9 µM | NCI-H23 17.4 µM | OVCAR-3 10.4 µM | HCC 2998 43.5 µM | HOP-62 25.8 µM | SR > 100 µM | RPMI-8226 > 100 µM | COLO 205 6.64 µM | TK-10 67.5 µM | HCT-116 12.8 µM | K562 5.2 µM | IGROV-1 15 µM

CC(C)CNC(=O)CCc1cccc2c1oc1c(CCN)cccc12
inactive: UACC-257 11.7 µM | UO-31 12.4 µM | NCI-H460 18.2 µM | SK-MEL-5 14.2 µM | SNB-75 5.62 µM | NCI/ADR-RES 18.7 µM | OVCAR-4 18 µM | OVCAR-5 15.1 µM | NCI-H23 12.5 µM | OVCAR-3 5.65 µM | HCC 2998 14.2 µM | HOP-62 18.5 µM | SR 8.43 µM | SF-539 16 µM | COLO 205 5.86 µM | HCT-116 9.93 µM | K562 1.98 µM | IGROV-1 10.2 µM

Cc1nnc(N)nc1C/C=C/C(Sc1ccc(Cl)cc1)c1ccccc1 (stereo not given)
inactive: UACC-257 4.22 µM | UO-31 1.52 µM | NCI-H460 3.41 µM | SK-MEL-5 4.35 µM | SNB-75 4.45 µM | NCI/ADR-RES 4.69 µM | OVCAR-4 4.94 µM | OVCAR-5 4.89 µM | NCI-H23 3.17 µM | HCC 2998 9.38 µM | HOP-62 5.28 µM | SR 3.35 µM | RPMI-8226 1.43 µM | COLO 205 4.5 µM | TK-10 7.14 µM | HCT-116 3.59 µM | K562 3.44 µM | IGROV-1 1.82 µM

C=C(C)COC1CCCCO1 (stereo not given)
inactive: UACC-257 > 100 µM | UO-31 > 100 µM | NCI-H460 > 100 µM | SK-MEL-5 > 100 µM | SNB-75 > 100 µM | NCI/ADR-RES > 100 µM | OVCAR-5 > 100 µM | NCI-H23 > 100 µM | OVCAR-3 > 100 µM | HCC 2998 > 100 µM | HOP-62 > 100 µM | SR > 10 µM | SF-539 > 100 µM | RPMI-8226 > 100 µM | COLO 205 > 100 µM | TK-10 > 100 µM | HCT-116 > 100 µM | K562 41.6 µM | IGROV-1 > 100 µM
